What was measured:
[1] = target: Prothrombin (Homo sapiens, UniProt P00734); experiment: Inhibitory activity against thrombin
[2] = species on record: Homo sapiens; experiment: Concentration of compound required to double the human activated partial thromboplastin time; format: functional
[3] = tested on: Caco-2; experiment: Apparent permeability coefficient (Papp) from the apical to basolateral side in the human Caco-2 monolayer was determined; format: functional
[4] = Clearance on i.v. administration of 2 mg/kg was measured in dog; format: ADME, organism-based, Canis lupus familiaris; parameters: dose 2 mg/kg, route intravenous; details: in vivo, iv
[5] = Bioavailability in dog; format: ADME, organism-based, Canis lupus familiaris; details: in vivo
[6] = Cmax on p.o. administration of 10 mg/kg was measured in dog; format: ADME, organism-based, Canis lupus familiaris; parameters: dose 10 mg/kg, route oral; details: in vivo, po
[7] = Vss on i.v. administration of 2 mg/kg was measured in dog; format: ADME, organism-based, Canis lupus familiaris; parameters: dose 2 mg/kg, route intravenous; details: in vivo, iv, read-out: Vss
[8] = Half life on i.v. administration of 2 mg/kg was measured in dog; format: ADME, organism-based, Canis lupus familiaris; parameters: dose 2 mg/kg, route intravenous; details: in vivo, iv

SMILES	Ki [1]	further results
CCCN(Cc1ccccn1)C(=O)c1cc(C)cc(OCCCON=C(N)N)c1	94 nM	
Cc1cc(OCCCONC(=N)N)cc(C(=O)N(Cc2ccncc2)CC2CC2)c1	24 nM	
N=C(N)NOCCCOc1cc(Cl)cc(C(=O)N(CCN2CCOCC2)CC2CC2)c1	159 nM	
CCOC(=O)CCN(CC1CC1)C(=O)c1cc(C)cc(OCCCONC(=N)N)c1	65 nM	
C=CCN(C(=O)c1cc(C)cc(OCCCONC(=N)N)c1)C1CCCCC1	9 nM	
C=CCN(C(=O)c1cc(C)cc(OCCCON=C(N)N)c1)C1CCCC1		2 x APTT [2]: 11.3 µM; Activity [3]: 4.86e-06 cm/s
CCCN(CC1CCCC1)C(=O)c1cc(Cl)cc(OCCCONC(=N)N)c1	38 nM	
CN(C(=O)c1cc(Cl)cc(OCCCON=C(N)N)c1)C1CCCCC1	33 nM	
CCCN(Cc1ccc(F)cc1)C(=O)c1cc(C)cc(OCCCON=C(N)N)c1	21 nM	
CCCN(CC1CCC1)C(=O)c1cc(Cl)cc(OCCCON=C(N)N)c1	16 nM	
N=C(N)NOCCCOc1cc(Cl)cc(C(=O)N2CCCCC2)c1	880 nM	
Cc1cc(OCCCONC(=N)N)cc(C(=O)N(Cc2ccsc2)CC2CC2)c1	31 nM	
C=CCN(Cc1ccoc1)C(=O)c1cc(Cl)cc(OCCCONC(=N)N)c1	20 nM	
Cc1cc(OCCCONC(=N)N)cc(C(=O)N(Cc2ccoc2)C2CCC2)c1	22 nM	
C[C@H](CS)C(=O)N1CCC[C@H]1C(=O)O [CAPTOPRIL]	48 nM	
CCN(Cc1ccncc1)C(=O)c1cc(Cl)cc(OCCCONC(=N)N)c1	1600 nM	
Cc1cc(OCCCONC(=N)N)cc(C(=O)N(CCCCCC(N)=O)C2CCCCC2)c1	8 nM	
Cc1cc(OCCCONC(=N)N)cc(C(=O)N(Cc2cccnc2)CC2CC2)c1	34 nM	
Cc1cc(OCCCONC(=N)N)cc(C(=O)N(CCC(N)=O)Cc2ccoc2)c1	110 nM	

SMILES	Ki [1]	further results
N=C(N)NOCCCOc1cc(Cl)cc(C(=O)N(CCc2ccccn2)CC2CC2)c1	59 nM	
C=CCN(C(=O)c1cc(C)cc(OCCCONC(=N)N)c1)C1CCCC1	10 nM	clearance [4]: 11.2 mL/min/kg; bioavailability [5]: 89%; Cmax [6]: 3.7 µM; Vd [7]: 2.8 L/kg; half-life [8]: 3.7 h
CCCCN(Cc1ccoc1)C(=O)c1cc(C)cc(OCCCONC(=N)N)c1	8 nM	
N=C(N)NOCCCOc1cc(Cl)cc(C(=O)N2CCN(c3ccccn3)CC2)c1	640 nM	
CCCN(Cc1ccoc1)C(=O)c1cc(C)cc(OCCCONC(=N)N)c1	9 nM	clearance [4]: 10.1 mL/min/kg; bioavailability [5]: 62%; Cmax [6]: 4.5 µM; Vd [7]: 2.4 L/kg; half-life [8]: 3.8 h
N=C(N)NOCCCOc1cc(Cl)cc(C(=O)N(Cc2ccoc2)CC2CC2)c1	17 nM	
CCCN(Cc1ccoc1)C(=O)c1cc(C)cc(OCCCON=C(N)N)c1		2 x APTT [2]: 11.5 µM; Activity [3]: 4.05e-06 cm/s
CCN(C(=O)c1cc(C)cc(OCCCONC(=N)N)c1)C1CCCCC1	6 nM	
COC(=O)CCN(CC1CC1)C(=O)c1cc(Cl)cc(OCCCONC(=N)N)c1	38 nM	
N=C(N)NOCCCOc1cc(Cl)cc(C(=O)N(CCN2CCCC2)CC2CC2)c1	204 nM	
Cc1cc(OCCCON=C(N)N)cc(C(=O)N(Cc2ccoc2)C(C)C)c1	68 nM	
COCCN(CC1CC1)C(=O)c1cc(Cl)cc(OCCCONC(=N)N)c1	156 nM	
N=C(N)NOCCCOc1cc(Cl)cc(C(=O)N(CCc2ccncc2)CC2CC2)c1	52 nM	
N=C(N)NOCCCOc1cc(Cl)cc(C(=O)N2CCN(c3ccccc3)CC2)c1	2900 nM	
N=C(N)NOCCCOc1cc(Cl)cc(C(=O)N2CCc3ccccc3C2)c1	171 nM	
Cc1cc(OCC2(CON=C(N)N)CC2)cc(C(=O)N(Cc2ccoc2)CC2CC2)c1		2 x APTT [2]: 8.7 µM; Activity [3]: 2.17e-06 cm/s
Cc1cc(OCCCONC(=N)N)cc(C(=O)N(Cc2ccccn2)CC2CC2)c1	86 nM	
N=C(N)NOCCCOc1cc(Cl)cc(C(=O)N2CCC(Cc3ccccc3)CC2)c1	1500 nM	
CCCN(Cc1nccs1)C(=O)c1cc(C)cc(OCCCONC(=N)N)c1	195 nM	

SMILES	Ki [1]	further results
CCCN(CC1CC1)C(=O)c1cc(Cl)cc(OCCCONC(=N)N)c1	23 nM	
Cc1cc(OCC2(CONC(=N)N)CC2)cc(C(=O)N(Cc2ccoc2)CC2CC2)c1	4 nM	clearance [4]: 5.7 mL/min/kg; bioavailability [5]: 77%; Cmax [6]: 4.1 µM; Vd [7]: 2.5 L/kg; half-life [8]: 5.9 h
Cc1cc(OCCCON=C(N)N)cc(C(=O)N(CCC(C)C)Cc2ccoc2)c1	7 nM	
CCSCCN(Cc1ccoc1)C(=O)c1cc(C)cc(OCCCON=C(N)N)c1	6 nM	
N=C(N)NOCCCOc1cc(Cl)cc(C(=O)N(CCC(=O)O)CC2CC2)c1	213 nM	
Cc1cc(OCCCON=C(N)N)cc(C(=O)N(Cc2ccoc2)CC2CC2)c1		2 x APTT [2]: 8.4 µM; Activity [3]: 3e-06 cm/s
CCN(Cc1ccccc1)C(=O)c1cc(Cl)cc(OCCCONC(=N)N)c1	91 nM	
Cc1cc(OCCCONC(=N)N)cc(C(=O)N(Cc2ccoc2)CC2CC2)c1	11 nM	clearance [4]: 7.8 mL/min/kg; bioavailability [5]: 68%; Cmax [6]: 5.1 µM; Vd [7]: 1.6 L/kg; half-life [8]: 2.5 h
COCCN(Cc1ccoc1)C(=O)c1cc(C)cc(OCCCON=C(N)N)c1	28 nM	
CCCN(Cc1cccnc1)C(=O)c1cc(C)cc(OCCCONC(=N)N)c1	52 nM	
CCCN(Cc1ccoc1)C(=O)c1cc(C)cc(OCC2(CON=C(N)N)CC2)c1		clearance [4]: 4.2 mL/min/kg; bioavailability [5]: 73%; Cmax [6]: 5.8 µM; Vd [7]: 1.7 L/kg; half-life [8]: 4.4 h; Activity [3]: 4.11e-06 cm/s
N=C(N)NOCCCOc1cc(Cl)cc(C(=O)N2CCCCCC2)c1	470 nM	
CCCN(Cc1ccncc1)C(=O)c1cc(C)cc(OCCCONC(=N)N)c1	73 nM	
N=C(N)NOCCCOc1cc(Cl)cc(C(=O)N(CCc2cccnc2)CC2CC2)c1	47 nM	
Cc1cc(OCCCON=C(N)N)cc(C(=O)N(Cc2ccoc2)CC2CCCCC2)c1	21 nM	
CN(C(=O)c1cc(Cl)cc(OCCCONC(=N)N)c1)C1CCCC1	373 nM	
C=CCN(Cc1cccs1)C(=O)c1cc(Cl)cc(OCCCONC(=N)N)c1	147 nM	
CCCN(CC1CCC1)C(=O)c1cc(C)cc(OCCCON=C(N)N)c1	17 nM	

— ChEMBL document CHEMBL1146801, “Oxyguanidines. Part 2: Discovery of a novel orally active thrombin inhibitor through structure-based drug design and parallel synthesis” (Bioorg Med Chem Lett, 2004)
